According to patent US20260159512A1, “BCAT2 INHIBITORS” (AGIOS PHARMACEUTICALS, INC., priority 2021, published 2026):

How the values were obtained:
Details in all cases: average where tested multiple times
BCAT2 [1] = molecular target: T1, BCAT2 (Homo sapiens, UniProt O15382); test: BCAT2 in vitro enzyme inhibition assay (resazurin/diaphorase-coupled fluorescence); assay type: biochemical
T1 sequence (O15382 28-392): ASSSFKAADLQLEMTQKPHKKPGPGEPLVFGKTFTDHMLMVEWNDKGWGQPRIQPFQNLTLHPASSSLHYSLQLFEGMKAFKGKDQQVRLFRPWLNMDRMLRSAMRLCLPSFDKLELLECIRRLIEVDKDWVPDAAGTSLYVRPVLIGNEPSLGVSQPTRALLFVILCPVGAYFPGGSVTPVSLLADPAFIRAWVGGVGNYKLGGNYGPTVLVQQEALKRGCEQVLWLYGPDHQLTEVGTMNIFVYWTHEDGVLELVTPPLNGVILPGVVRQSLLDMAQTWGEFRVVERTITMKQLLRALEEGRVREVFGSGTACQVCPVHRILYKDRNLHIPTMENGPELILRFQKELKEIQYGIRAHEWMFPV
In short: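 Coupled fluorescence readout: glutamate formed from L-leucine/α-ketoglutarate transamination drives GDH/NAD/diaphorase reduction of resazurin (Ex 540/Em 590). Human BCAT2 was first exposed 1 h at room temperature to compound, top final 100 μM in 3-fold, 10-point series; substrate reaction ran 1 h before SDS quench, in technical duplicate with DMSO max and enzyme-free min controls.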

BCAT2 [2] = molecular target: T1, BCAT2; test: BCAT2 in vitro cell inhibition using engineered A549 cells (KMV cell assay, 13C6-KMV by LC-MS/MS); assay type: cell-based; set-up: The result was an engineered A549 cell line that expressed endogenous BCAT2; endogenous in cells; host or cells: A549 cells with MUT and BCAT1 knocked out by CRISPR/CAS9; key to BCAT2 Cell Inhibition: A: less than or equal to 0.100 μM; B: greater than 0.100 and less than or equal to 0.500 μM; C: greater than 0.500 and less than or equal to 1.000 μM; d: greater than 1.000 μM; E: no fit
hBCAT1 = molecular target: T2, hBCAT1 (Homo sapiens, UniProt P54687); test: BCAT1 in vitro enzyme inhibition assay (resazurin/diaphorase-coupled fluorescence); assay type: biochemical
T2 sequence (P54687 1-386): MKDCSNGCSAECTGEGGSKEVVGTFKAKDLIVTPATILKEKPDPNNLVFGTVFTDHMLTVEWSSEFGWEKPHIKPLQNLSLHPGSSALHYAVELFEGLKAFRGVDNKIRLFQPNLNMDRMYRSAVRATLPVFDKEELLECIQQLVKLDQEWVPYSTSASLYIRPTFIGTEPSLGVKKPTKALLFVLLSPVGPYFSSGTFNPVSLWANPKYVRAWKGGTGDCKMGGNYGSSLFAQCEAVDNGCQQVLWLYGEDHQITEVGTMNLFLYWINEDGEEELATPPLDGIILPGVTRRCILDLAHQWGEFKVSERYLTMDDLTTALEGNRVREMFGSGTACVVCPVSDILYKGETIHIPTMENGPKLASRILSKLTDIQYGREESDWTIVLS
In short: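 Human BCAT1 activity read by resazurin/diaphorase-coupled fluorescence. Compounds added from 50× DMSO stocks at 1:50, giving 10-point 3-fold titrations from 100 μM top final concentration. Run in technical duplicate; repeat tests averaged.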

Structure (SMILES)	IC50 (BCAT2 [1]) [nM]	IC50 (BCAT2 [2]) [nM]	IC50 (hBCAT1) [nM]	BCAT2 Cell Inhibition (BCAT2 [2])
O=C(N[C@H]1CCC[C@@H](n2c(C3COCCO3)nc3cnc(-c4nc[nH]n4)cc32)C1)c1ncc(Cl)s1 (single isomer, unassigned) [Example 176]	100 to 500	> 1000	1000 to 5000	–
CC(C)C(O)c1nc2cnc(-c3nc[nH]n3)cc2n1[C@@H]1CCC[C@H](NC(=O)c2ncc(Cl)s2)C1 (single isomer, unassigned) [Example 183]	≤ 100	100 to 500	< 500	–
CC(C)Cc1nc2cnc(-c3ccccn3)cc2n1[C@@H]1C[C@@H](O)C[C@H](NC(=O)c2ncc(Cl)s2)C1 (single isomer, unassigned) [Example 214]	≤ 100	≤ 100	< 500	–
CO[C@H]1C[C@H](NC(=O)c2ncc(Cl)s2)C[C@H](n2c(-c3ccccc3F)nc3cnc(-c4nc[nH]n4)cc32)C1 (single isomer, unassigned) [Example 218]	≤ 100	≤ 100	< 500	–
CC1(O)[C@@H](NC(=O)c2ncc(Cl)s2)CCC[C@H]1n1c(-c2ccccc2F)nc2cnc(-c3nc[nH]n3)cc21 (single isomer, unassigned) [Example 233]	≤ 100	100 to 500	< 500	–
O=C(N[C@H]1C[C@H](O)C[C@@H](n2c(-c3ccccc3F)nc3cnc(-c4ccccn4)cc32)C1)c1ncc(Cl)s1 (single isomer, unassigned) [Example 252]	≤ 100	≤ 100	< 500	–
O=C(N[C@H]1C[C@H](O)C[C@@H](n2c(-c3ccccc3F)nc3cnc(-c4ccn[nH]4)cc32)C1)c1ncc(Cl)s1 (single isomer, unassigned) [Example 258]	≤ 100	≤ 100	< 500	–
CNC(=O)c1cc2nc(CC(C)C)n([C@@H]3CCC[C@H](NC(=O)c4ncc(Cl)s4)[C@H]3O)c2cn1 (single isomer, unassigned) [Example 280]	≤ 100	500 to 1000	1000 to 5000	–
CC(C)Cc1nc2cnc(-n3nccn3)cc2n1[C@@H]1C[C@@H](O)C[C@H](NC(=O)c2ccc(Cl)s2)C1 (single isomer, unassigned) [Example 395]	≤ 100	≤ 100	< 500	–
CO[C@H]1C[C@H](NC(=O)c2ncc(Cl)s2)C[C@H](n2c(CC(C)C)nc3cnc(-c4ncc(C)o4)cc32)C1 (single isomer, unassigned) [Example 427]	≤ 100	100 to 500	500 to 1000	–
CO[C@H]1C[C@H](NC(=O)c2ccc(Cl)s2)C[C@H](n2c(CC(C)C)nc3cnc(-c4ncccn4)cc32)C1 (single isomer, unassigned) [Example 437]	≤ 100	≤ 100	< 500	–
CO[C@@H]1C[C@H](NC(=O)c2ncc(Cl)s2)C[C@H](n2c(CC(C)C)nc3cnc(-n4nccn4)cc32)C1 (single isomer, unassigned) [Example 439]	≤ 100	≤ 100	< 500	–
CO[C@H]1C[C@H](NC(=O)c2ncc(Cl)s2)C[C@H](n2c(CC(C)(C)C)nc3cnc(-c4ccccn4)cc32)C1 (single isomer, unassigned) [Example 442]	≤ 100	100 to 500	1000 to 5000	–
N#CC1CC(NC(=O)c2ncc(Cl)s2)CC(n2c(-c3ccccc3F)nc3cnc(-c4nc[nH]n4)cc32)C1 (single isomer, unassigned) [Example 451, 5-chloro-N-(3-cyano-5-(2-(2-fluorophenyl)-6-(1H-1,2,4-triazol-3-yl)-1H-imidazo[4,5-c]pyridin-1-yl)cyclohexyl)thiazole-2-carboxamide]	≤ 100	100 to 500	< 500	–
NC1CC(NC(=O)c2ncc(Cl)s2)CC(n2c(-c3ccccc3F)nc3cnc(-c4nc[nH]n4)cc32)C1 (single isomer, unassigned) [Example 455, N-(3-amino-5-(2-(2-fluorophenyl)-6-(1H-1,2,4-triazol-3-yl)-1H-imidazo[4,5-c]pyridin-1-yl)cyclohexyl)-5-chlorothiazole-2-carboxamide]	≤ 100	100 to 500	< 500	–
CC(C)Cc1nc2cnc(-c3ccn(C(F)F)n3)cc2n1[C@@H]1CC(O)C[C@H](NC(=O)c2ncc(Cl)s2)C1 (stereo in doubt) [Example 213, 5-chloro-N-((1R,3S,5R)-3-(6-(1-(difluoromethyl)-1H-pyrazol-3-yl)-2-isobutyl-1H-imidazo[4,5-c]pyridin-1-yl)-5-hydroxycyclohexyl)thiazole-2-carboxamide]	≤ 100	500 to 1000	500 to 1000	–
CC(C)Cc1nc2cnc(-c3cccc(F)n3)cc2n1[C@H]1C[C@H](O)C[C@@H](NC(=O)c2ncc(Cl)s2)C1 (stereo in doubt) [Example 385, 5-chloro-N-((1S,3R,5R)-3-(6-(6-fluoropyridin-2-yl)-2-isobutyl-1H-imidazo[4,5-c]pyridin-1-yl)-5-hydroxycyclohexyl)thiazole-2-carboxamide]	≤ 100	100 to 500	< 500	–
CC(C)Cc1nc2cnc(-c3ncccn3)cc2n1[C@@H]1C[C@@H](O)C[C@H](NC(=O)c2ncc(Cl)s2)C1 (stereo in doubt) [Example 397, 5-chloro-N-((1R,3S,5S)-3-hydroxy-5-(2-isobutyl-6-(pyrimidin-2-yl)-1H-imidazo[4,5-c]pyridin-1-yl)cyclohexyl)thiazole-2-carboxamide]	> 1000	–	1000 to 5000	E
CO[C@@H]1C[C@@H](NC(=O)c2ccc(Cl)s2)C[C@@H](n2c(-c3ccccc3F)nc3cnc(-c4nc[nH]n4)cc32)C1 (stereo in doubt) [Example 412, 5-chloro-N-((1S,3R,5R)-3-(2-(2-fluorophenyl)-6-(1H-1,2,4-triazol-3-yl)-1H-imidazo[4,5-c]pyridin-1-yl)-5-methoxycyclohexyl)thiophene-2-carboxamide]	≤ 100	≤ 100	< 500	–
CO[C@@H]1C[C@@H](NC(=O)c2ncc(Cl)s2)C[C@@H](n2c(CC(C)C)nc3cnc(-c4nc[nH]n4)cc32)C1 (stereo in doubt) [Example 414, 5-chloro-N-((1S,3R,5R)-3-(2-isobutyl-6-(1H-1,2,4-triazol-3-yl)-1H-imidazo[4,5-c]pyridin-1-yl)-5-methoxycyclohexyl)thiazole-2-carboxamide]	≤ 100	≤ 100	< 500	–
CO[C@@H]1C[C@@H](NC(=O)c2ncc(Cl)s2)C[C@@H](n2c(-c3ccccc3F)nc3cnc(-n4cncn4)cc32)C1 (stereo in doubt) [Example 416, 5-chloro-N-((1S,3R,5R)-3-(2-(2-fluorophenyl)-6-(1H-1,2,4-triazol-1-yl)-1H-imidazo[4,5-c]pyridin-1-yl)-5-methoxycyclohexyl)thiazole-2-carboxamide]	≤ 100	≤ 100	1000 to 5000	–
CO[C@H]1C[C@@H](NC(=O)c2ncc(Cl)s2)C[C@@H](n2c(-c3ccccc3F)nc3cnc(-c4nc[nH]n4)cc32)C1 (stereo in doubt) [Example 420, 5-chloro-N-((1S,3R,5S)-3-(2-(2-fluorophenyl)-6-(1H-1,2,4-triazol-3-yl)-1H-imidazo[4,5-c]pyridin-1-yl)-5-methoxycyclohexyl)thiazole-2-carboxamide]	≤ 100	≤ 100	< 500	–
CO[C@@H]1C[C@@H](NC(=O)c2ncc(Cl)s2)C[C@@H](n2c(-c3ccccc3F)nc3cnc(-n4nccn4)cc32)C1 (stereo in doubt) [Example 424, 5-chloro-N-((1S,3R,5R)-3-(2-(2-fluorophenyl)-6-(2H-1,2,3-triazol-2-yl)-1H-imidazo[4,5-c]pyridin-1-yl)-5-methoxycyclohexyl)thiazole-2-carboxamide]	≤ 100	≤ 100	< 500	–
